Experimental data: patent US20030203944A1, “Novel thiocarbamic acid derivatives and the pharmaceutical compositions containing the same” (priority 2000, published 2003)

Assays:
[1] = target: T1, cation channel connected to vanilloid receptor (Rattus norvegicus, UniProt O35433); test: Channel activity assay (patch clamp test); assay type: cell-based; parameters: key: NR: no response; +: antagonistic potency equal to capsazepine; ++: antagonistic potency 10 times higher than capsazepine; details: potency relative to capsazepine
T1 construct: endogenous in cells
T1 sequence (O35433 whole entry): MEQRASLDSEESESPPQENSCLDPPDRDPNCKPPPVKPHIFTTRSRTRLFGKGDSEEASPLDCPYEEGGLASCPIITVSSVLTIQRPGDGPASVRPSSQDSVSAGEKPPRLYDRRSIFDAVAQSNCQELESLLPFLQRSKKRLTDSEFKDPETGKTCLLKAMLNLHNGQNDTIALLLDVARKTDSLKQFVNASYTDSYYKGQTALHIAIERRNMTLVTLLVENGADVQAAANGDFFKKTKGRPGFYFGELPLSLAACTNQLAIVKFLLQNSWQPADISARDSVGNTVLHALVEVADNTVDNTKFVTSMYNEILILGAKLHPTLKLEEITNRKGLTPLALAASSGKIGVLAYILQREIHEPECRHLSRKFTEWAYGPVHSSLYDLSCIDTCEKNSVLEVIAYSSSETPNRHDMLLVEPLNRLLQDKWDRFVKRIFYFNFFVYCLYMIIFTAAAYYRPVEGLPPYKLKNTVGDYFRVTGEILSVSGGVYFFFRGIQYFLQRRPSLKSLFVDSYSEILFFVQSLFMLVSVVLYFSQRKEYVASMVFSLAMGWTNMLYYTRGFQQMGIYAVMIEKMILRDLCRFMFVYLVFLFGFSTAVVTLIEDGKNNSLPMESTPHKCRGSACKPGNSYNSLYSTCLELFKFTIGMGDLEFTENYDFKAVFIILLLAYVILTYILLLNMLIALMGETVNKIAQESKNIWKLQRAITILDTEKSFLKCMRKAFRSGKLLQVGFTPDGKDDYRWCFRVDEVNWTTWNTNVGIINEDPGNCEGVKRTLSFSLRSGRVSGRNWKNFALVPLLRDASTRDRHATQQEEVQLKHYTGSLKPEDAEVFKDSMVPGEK
Description: (2) Channel Activity Assay
Antagonistic activities of test compounds were assayed based on electrical change of cation channel connected to vanilloid receptor and experiments were conducted according to reference method (Oh et al., 1996, J. Neuroscience 16, pp1659-1667) (Table 1).

[2] = test system: Male ICR mice; test: Analgesic activity test: mouse writhing test by inducing with phenyl-p-quinone; assay type: in vivo; details: writhes vs control
Description: (3) Analgesic Activity Test: Mouse Writhing Test by Inducing with Phenyl-p-quinone
Male ICR mice (mean body weight 25 g) were maintained in a controlled lighting environment (12 h on/12 h off) for experiment. Animals received an intraperitoneal injection of 0.3 ml of the chemical irritant phenyl-p-quinone (dissolved in saline containing 5% ethanol to be a dose of 4.5 mg/kg) and 6 min later, the number of abdominal constrictions was counted in the subsequent 6 min period. Animals (10 animals/group) received 0.2 ml of test compounds solution in vehicle of ethanol/Tween 80/saline (10/10/80) intraperitoneally 30 min before the injection of phenyl-p-quinone. A reduction in the number of writhes responding to the test drug compound relative to the number responding in saline control group was considered to be indicative of an analgesic effect. Analgesic effect was calculated by % inhibition equation (% inhibition=(C−T)/C×100), wherein C and T represent the number of writhes in control and compound-treated group, respectively (Table 2).

[3] = test system: Male ICR mice; test: Antiinflammatory activity test: TPA-induced mouse ear edema test; assay type: in vivo; details: dose 1 mg/ear topical; ear weight increase 24 h after TPA
Description: (4) Antiinflammatory Activity Test: TPA (12-O-tetradecanoylphorbol 13-acetate)-induced Mouse Ear Edema Test
Male ICR mice (body weight 25-30 g), 10 animals/group, were treated topically on the right ear with 30 μl of TPA (2.5 μg) solution in acetone and after 15 min, […] of acetone or test compound solution in acetone was applied topically. After six hours, an identical treatment was applied again. After twenty four hours following the treatment of TPA, the animals were sacrificed and ear tissue was dissected using 6 mm-diameter punch. Ear tissue dissected were weighed to the nearest 0.1 mg on an electrobalance. The increased weight of the tissue compared to control group was considered as an index of inflammation. The percent inhibition is defined by the following equation:
% inhibition=(C−T)/C×100, wherein C and T represent an increase of ear weight in TPA-treated and ThA+drug-treated group, respectively.

[4] = dose 10 mg/kg intraperitoneally 30 min before phenyl-p-quinone

| Patch clamp Test (antagonistic activities) [1] | Compound | Analgesic effect (% Inhibition) [2, 4] [%] | Anti-inflammatory effect (% Inhibition) [3] [%] | Analgesic effect (% Inhibition) ([2]; dose 1 mg/kg intraperitoneally 30 min before phenyl-p-quinone) [%] |
| --- | --- | --- | --- | --- |
| + | COc1cc(CCC(CCc2ccccc2)OC(=S)NCCc2ccccc2)ccc1O (stereo not shown) [Example 5, Phenethyl Thiocarbamic Acid O-[3-(4-hydroxy-3-methoxyphenyl)-1-phenethylpropyl] Ester] | 44 | 33 |  |
| + | COc1cc(CCC(CCc2ccc(C(F)(F)F)cc2)OC(=S)NCCc2ccccc2)ccc1O (stereo not shown) [Example 54] | 64 | 40 |  |
| + | COc1cc(CCC(C)(C)OC(=S)NCCc2ccccc2)ccc1O [Example 56] |  |  |  |
|  | COc1cc(OCC2CO2)ccc1O[Si](C)(C)C(C)(C)C (stereo not shown) [Example 60, t-butyl-(2-methoxy-4-oxiranylmethoxy-phenoxy)-dimethyl-silane] |  | 45 | 45 |
| + | CCC(COc1ccc(NS(C)(=O)=O)c(C(F)(F)F)c1)OC(=S)NCCc1ccccc1 (stereo not shown) [Example 83] |  |  |  |
